From ChEMBL document CHEMBL3351914, “Finding the perfect spot for fluorine: improving potency up to 40-fold during a rational fluorine scan of a Bruton's Tyrosine Kinase (BTK) inhibitor scaffold” (Bioorg Med Chem Lett, 2015)

Molecular target: Tyrosine-protein kinase BTK (Homo sapiens, UniProt Q06187)
Experiment: Inhibition of BTK in human whole blood assessed as decrease in CD69 positive cells
Format: cell-based

Tyrosine-protein kinase BTK, sequence (Q06187 whole entry): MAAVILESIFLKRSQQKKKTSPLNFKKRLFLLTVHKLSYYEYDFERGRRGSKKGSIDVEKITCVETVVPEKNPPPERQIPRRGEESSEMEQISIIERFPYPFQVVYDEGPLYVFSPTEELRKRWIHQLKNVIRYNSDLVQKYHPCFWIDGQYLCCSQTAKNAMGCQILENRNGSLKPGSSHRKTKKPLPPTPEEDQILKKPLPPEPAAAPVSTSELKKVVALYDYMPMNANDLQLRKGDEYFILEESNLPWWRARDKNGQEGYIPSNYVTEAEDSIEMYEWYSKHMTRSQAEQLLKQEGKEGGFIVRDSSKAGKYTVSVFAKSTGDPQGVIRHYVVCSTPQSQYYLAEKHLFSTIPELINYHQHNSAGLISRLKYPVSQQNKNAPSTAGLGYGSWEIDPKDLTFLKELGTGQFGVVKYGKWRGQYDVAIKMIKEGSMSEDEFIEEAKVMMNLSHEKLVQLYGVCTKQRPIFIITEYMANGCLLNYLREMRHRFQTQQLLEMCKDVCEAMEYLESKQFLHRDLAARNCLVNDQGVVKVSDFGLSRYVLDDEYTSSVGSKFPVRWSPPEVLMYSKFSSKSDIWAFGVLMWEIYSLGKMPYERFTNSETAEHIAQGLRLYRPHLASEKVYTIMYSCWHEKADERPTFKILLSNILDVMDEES

Going from `CCNC(=O)Nc1cc(-c2cccc(N3CCc4cc(N(C)C)ccc4C3=O)c2CO)cn(C)c1=O` to `CNC(=O)Nc1cc(-c2ccc(F)c(N3CCc4cc(N(C)C)ccc4C3=O)c2CO)cn(C)c1=O`, the IC50 rises from 1600 nM to 3700 nM (2.3-fold).

`CN(C)c1ccc2c(c1)CCN(c1cccc(-c3cc(Nc4ccc(N5CCOCC5)cn4)c(=O)n(C)c3)c1CO)C2=O` and `CN(C)c1ccc2c(c1)CCN(c1cc(F)cc(-c3cc(Nc4ccc(N5CCOCC5)cn4)c(=O)n(C)c3)c1CO)C2=O` are within 1.5-fold of each other in IC50: 190 nM for the first, 200 nM for the second.

Going from `CN(C)c1ccc2c(=O)n(-c3cccc(-c4cc(Nc5ccc(C(=O)N6CCOCC6)cn5)c(=O)n(C)c4)c3CO)ccc2c1` to `CN1CCN(c2ccc(Nc3cc(-c4cccc(N5CCc6cc(C(C)(C)C#N)ccc6C5=O)c4CO)cn(C)c3=O)nc2)CC1`, the IC50 falls from 280 nM to 60 nM (4.7-fold). The second is the more potent here.
